# Reference: patent US9724352B2, “Pyrrolo[2,1-F[1,2,4]triazine compounds, preparation methods and applications thereof” (Shanghai Institute of Materia Medica, Chinese Academy of …, priority 2012, dated 2017)
# Tests used:
# KYSE150 = assay: Proliferation of human esophagus cancer cells; assay type: cell-based
# Excerpt: (§1) Compounds BYL719 (shown below), CYH33 (compound I-33) and I-27 were selected to test their activity on the proliferation of 11 species of human esophagus cancer cells.
# (§2) The results reported in FIG. 3 were the average GI50 value and SD value of three experiments. The results were arranged according to the GI50 value of CYH33.
# KYSE450 = assay: Proliferation of human esophagus cancer cells; assay type: cell-based
# Excerpt: as §1, §2
# COLO680N = assay: Proliferation of human esophagus cancer cells; assay type: cell-based; conditions: COLO-680N
# Excerpt: as §1, §2
# Detroit 562 = assay: Proliferation of human esophagus cancer cells; assay type: cell-based
# Excerpt: as §1, §2
# KYSE410 = assay: Proliferation of human esophagus cancer cells; assay type: cell-based
# Excerpt: as §1, §2
# KYSE180 = assay: Proliferation of human esophagus cancer cells; assay type: cell-based
# Excerpt: as §1, §2
# KYSE30 = assay: Proliferation of human esophagus cancer cells; assay type: cell-based
# Excerpt: as §1, §2
# KYSE510 = assay: Proliferation of human esophagus cancer cells; assay type: cell-based
# Excerpt: as §1, §2
# KYSE70 = assay: Proliferation of human esophagus cancer cells; assay type: cell-based
# Excerpt: as §1, §2
# KYSE2 = assay: Proliferation of human esophagus cancer cells; assay type: cell-based
# Excerpt: as §1, §2
# KYSE140 = assay: Proliferation of human esophagus cancer cells; assay type: cell-based
# Excerpt: as §1, §2
# [1] = tested on: human esophagus cancer KYSE 410 xenograft; assay: Growth of KYSE 410 xenograft subcutaneously transplanted in nude mouse; assay type: in vivo; conditions: for Relative tumor proliferation rate T/C: 50 mg/kg p.o. once every day
# Procedure: Well-developed tumors in nude mice were cut into 1.5 mm3 fragments and transplanted s.c. into the right flank of nude mice under sterile conditions. The diameters of subcutaneously transplanted tumours in nude mice were measured with a vernier calipe. When the tumour reached a volume 170 mm3, the mice were randomly assigned into two treatment groups: CYH33 50 mg/kg group or BYL-719 50 mg/kg group. Control groups were given the same amount of normal saline, and treatment groups received tested compounds (p.o). Compounds were administered orally once every day for 3 weeks. Evaluation index of antitumor activity was relative tumor proliferation rate T/C (%), the calculation formula of which was as follows: T/C (%)=(TRTV/CRTV)×100%, TRTV:RTV of treatment group; CRTV:RTV of negative control group.
# [2] = tested on: human rhabdomyosarcoma Rh30 cells; assay: Proliferation of Rh30 cells (sulforhodamine B); assay type: cell-based; conditions: for IC50: Homo sapiens, Rh30, 72 h, read-out: IC50 against proliferation of Rh30 cells
# Procedure: Rh30 cells were seeded in a 96-well plate at 3000 cells/well. After the cells adhered, tested compounds at concentration of 10, 3, 1, 0.3, or 0.1 μM were added, and incubated for 72 h. The culture media were discarded and cells were fixed with trichloroacetic acid. After washed with distilled water for five times and dried, sulfonylrhodamine B was added. After washed with 1% glacial acetic acid for five times and dried, trihydroxymethylaminomethane buffer was added. OD value was measured by using a microplate reader at a wavelength of 560 nm.
# PI3Kα = PI3Kα (Homo sapiens (Human), UniProt P42336); assay: Inhibition on PI3K kinase activity (Kinase-Glo Plus luminescent assay); assay type: biochemical; conditions: 2 μM ATP, 1 hour at room temperature
# Sequence of PI3Kα (P42336 whole entry): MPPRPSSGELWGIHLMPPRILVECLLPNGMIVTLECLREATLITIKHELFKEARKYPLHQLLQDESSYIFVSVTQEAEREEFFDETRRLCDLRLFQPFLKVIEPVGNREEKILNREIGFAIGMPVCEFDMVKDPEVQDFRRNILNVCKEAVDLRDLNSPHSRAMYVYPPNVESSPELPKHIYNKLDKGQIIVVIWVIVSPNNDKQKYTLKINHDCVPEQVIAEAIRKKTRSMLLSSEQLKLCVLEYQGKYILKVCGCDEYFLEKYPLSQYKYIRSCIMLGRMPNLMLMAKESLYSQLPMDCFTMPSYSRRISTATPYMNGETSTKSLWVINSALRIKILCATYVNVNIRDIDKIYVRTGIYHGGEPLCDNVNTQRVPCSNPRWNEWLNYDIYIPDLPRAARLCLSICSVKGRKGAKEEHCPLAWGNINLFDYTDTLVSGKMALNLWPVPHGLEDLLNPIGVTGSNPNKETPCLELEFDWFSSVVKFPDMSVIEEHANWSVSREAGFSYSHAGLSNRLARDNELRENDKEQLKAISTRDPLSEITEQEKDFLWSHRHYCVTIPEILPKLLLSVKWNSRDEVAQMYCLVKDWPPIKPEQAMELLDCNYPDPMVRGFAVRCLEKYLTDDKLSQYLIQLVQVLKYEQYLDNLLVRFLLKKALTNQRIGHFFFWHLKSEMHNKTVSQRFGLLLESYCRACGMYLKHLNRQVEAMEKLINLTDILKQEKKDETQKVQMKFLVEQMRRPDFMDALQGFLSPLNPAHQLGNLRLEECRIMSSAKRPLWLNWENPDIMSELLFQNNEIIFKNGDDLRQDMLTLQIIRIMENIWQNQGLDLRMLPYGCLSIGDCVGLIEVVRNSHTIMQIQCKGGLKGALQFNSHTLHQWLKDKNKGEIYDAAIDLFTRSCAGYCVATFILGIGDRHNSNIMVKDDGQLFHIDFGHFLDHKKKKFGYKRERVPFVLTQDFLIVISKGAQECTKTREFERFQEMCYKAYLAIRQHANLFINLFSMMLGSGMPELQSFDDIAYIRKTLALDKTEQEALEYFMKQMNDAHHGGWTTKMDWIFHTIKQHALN
# Sequence of PI3Kα (P27986 whole entry partner): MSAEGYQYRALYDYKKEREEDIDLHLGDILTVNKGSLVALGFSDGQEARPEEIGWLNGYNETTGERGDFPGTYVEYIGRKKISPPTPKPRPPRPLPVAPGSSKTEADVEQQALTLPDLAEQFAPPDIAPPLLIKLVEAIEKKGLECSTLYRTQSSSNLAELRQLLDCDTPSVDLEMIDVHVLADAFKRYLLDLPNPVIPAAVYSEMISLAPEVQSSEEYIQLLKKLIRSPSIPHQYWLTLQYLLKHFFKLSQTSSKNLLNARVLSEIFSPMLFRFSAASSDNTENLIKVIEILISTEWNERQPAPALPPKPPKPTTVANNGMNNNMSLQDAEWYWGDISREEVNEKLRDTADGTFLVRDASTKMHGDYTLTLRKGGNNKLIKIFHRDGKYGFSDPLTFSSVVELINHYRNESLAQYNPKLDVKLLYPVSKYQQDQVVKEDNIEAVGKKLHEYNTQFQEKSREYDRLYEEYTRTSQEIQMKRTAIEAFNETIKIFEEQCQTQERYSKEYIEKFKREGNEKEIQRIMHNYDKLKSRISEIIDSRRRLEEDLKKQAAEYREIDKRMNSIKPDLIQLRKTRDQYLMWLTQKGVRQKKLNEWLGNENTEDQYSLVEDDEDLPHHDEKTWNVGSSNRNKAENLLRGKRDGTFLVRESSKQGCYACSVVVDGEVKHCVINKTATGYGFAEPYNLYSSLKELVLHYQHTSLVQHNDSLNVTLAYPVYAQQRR
# Procedure: The activity of purified kinase was detected with Kinase-Glo® Plus kinase luminescent assay by measuring the amount of the remaining […] in the solution after the kinase reaction was completed. […] After reaction was performed for 1 hour at room temperature, 10 μL of Kinase Glo-Plus mixture was added and incubated for 1 hour to quench the reaction.
# [3] = KYSE-150, KYSE150, 1st experiment
# [4] = KYSE-150, KYSE150, 2nd experiment
# [5] = KYSE-150, KYSE150, 3rd experiment
# [6] = KYSE-150, KYSE150, mean of three experiments
# [7] = KYSE-450, KYSE450, 1st experiment
# [8] = KYSE-450, KYSE450, 2nd experiment
# [9] = KYSE-450, KYSE450, 3rd experiment
# [10] = KYSE-450, KYSE450, mean of three experiments
# [11] = Detroit 562, Detroit 562, 1st experiment
# [12] = Detroit 562, Detroit 562, 2nd experiment
# [13] = Detroit 562, Detroit 562, 3rd experiment
# [14] = Detroit 562, Detroit 562, mean of three experiments
# [15] = KYSE-410, KYSE410, 1st experiment
# [16] = KYSE-410, KYSE410, 2nd experiment
# [17] = KYSE-410, KYSE410, 3rd experiment
# [18] = KYSE-410, KYSE410, mean of three experiments
# [19] = KYSE-180, KYSE180, 1st experiment
# [20] = KYSE-180, KYSE180, 2nd experiment
# [21] = KYSE-180, KYSE180, 3rd experiment
# [22] = KYSE-180, KYSE180, mean of three experiments
# [23] = KYSE-30, KYSE30, 1st experiment
# [24] = KYSE-30, KYSE30, 2nd experiment
# [25] = KYSE-30, KYSE30, 3rd experiment
# [26] = KYSE-30, KYSE30, mean of three experiments
# [27] = KYSE-510, KYSE510, 1st experiment
# [28] = KYSE-510, KYSE510, 2nd experiment
# [29] = KYSE-510, KYSE510, 3rd experiment
# [30] = KYSE-510, KYSE510, mean of three experiments
# [31] = KYSE-70, KYSE70, 1st experiment
# [32] = KYSE-70, KYSE70, 2nd experiment
# [33] = KYSE-70, KYSE70, 3rd experiment
# [34] = KYSE-70, KYSE70, mean of three experiments
# [35] = KYSE2, mean of three experiments
# [36] = KYSE-140, KYSE140, 1st experiment
# [37] = KYSE-140, KYSE140, 2nd experiment
# [38] = KYSE-140, KYSE140, 3rd experiment
# [39] = KYSE-140, KYSE140, mean of three experiments
smiles,measurement,setting,value
"Cc1nc(NC(=O)N2CCC[C@H]2C(N)=O)sc1-c1ccnc(C(C)(C)C(F)(F)F)c1 [BYL719, reference compound]",GI50,KYSE150; [3],1640 nM
same,GI50,KYSE150; [4],2110 nM
same,GI50,KYSE150; [5],1670 nM
same,GI50,KYSE150; [6],1810 nM
same,GI50,KYSE450; [7],8590 nM
same,GI50,KYSE450; [8],10000 nM
same,GI50,KYSE450; [9],8800 nM
same,GI50,KYSE450; [10],9130 nM
same,GI50,COLO680N; 1st experiment,6120 nM
same,GI50,COLO680N; 2nd experiment,6050 nM
same,GI50,COLO680N; 3rd experiment,6100 nM
same,GI50,COLO680N; mean of three experiments,6090 nM
same,GI50,Detroit 562; [11],1970 nM
same,GI50,Detroit 562; [12],2300 nM
same,GI50,Detroit 562; [13],2380 nM
same,GI50,Detroit 562; [14],2220 nM
same,GI50,KYSE410; [15],1890 nM
same,GI50,KYSE410; [16],816 nM
same,GI50,KYSE410; [17],874 nM
same,GI50,KYSE410; [18],1190 nM
same,GI50,KYSE180; [19],354 nM
same,GI50,KYSE180; [20],740 nM
same,GI50,KYSE180; [21],553 nM
same,GI50,KYSE180; [22],549 nM
same,GI50,KYSE30; [23],10000 nM
same,GI50,KYSE30; [24],6830 nM
same,GI50,KYSE30; [25],10000 nM
same,GI50,KYSE30; [26],8940 nM
same,GI50,KYSE510; [27],1530 nM
same,GI50,KYSE510; [28],835 nM
same,GI50,KYSE510; [29],1030 nM
same,GI50,KYSE510; [30],1130 nM
same,GI50,KYSE70; [31],452 nM
same,GI50,KYSE70; [32],450 nM
same,GI50,KYSE70; [33],478 nM
same,GI50,KYSE70; [34],460 nM
same,GI50,"KYSE2; KYSE2, 1st experiment",1440 nM
same,GI50,"KYSE2; KYSE2, 2nd experiment",911 nM
same,GI50,"KYSE2; KYSE2, 3rd experiment",1870 nM
same,GI50,KYSE2; [35],1410 nM
same,GI50,KYSE140; [36],2450 nM
same,GI50,KYSE140; [37],3610 nM
same,GI50,KYSE140; [38],2740 nM
same,GI50,KYSE140; [39],2930 nM
same,growth of KYSE 410 xenograft (in words),[1]; 50 mg/kg p.o. every day for 3 weeks,significantly slowed down
same,Relative tumor proliferation rate T/C,[1]; d0,100.00%
same,Relative tumor proliferation rate T/C,[1]; d3,56.95%
same,Relative tumor proliferation rate T/C,[1]; d7,31.23%
same,Relative tumor proliferation rate T/C,[1]; d10,24.77%
same,Relative tumor proliferation rate T/C,[1]; d14,22.12%
same,Relative tumor proliferation rate T/C,[1]; d17,19.32%
same,Relative tumor proliferation rate T/C,[1]; d21,15.37%
"CN1CCN(C(=O)c2ccc(NC(=O)Nc3ccc(-c4nc(N5CCOCC5)c5cc(CN6CCN(S(C)(=O)=O)CC6)cn5n4)cc3)cc2)CC1 [Compound I-22, 1-(4-(4-methylpiperazine-carbonyl)phenyl)-3-(4-(6-((4-(methylsulfonyl)piperazin-1-yl)methy 1)-4-morpholinopyrrolo[2,1-f][1,2,4]triazin-2-yl)phenyl)urea]",IC50,[2],540 nM
same,IC50,PI3Kα,9.59 nM
"CS(=O)(=O)N1CCN(Cc2cc3c(N4CCOCC4)nc(-c4cnc(N)cc4C(F)(F)F)nn3c2)CC1 [Compound I-27, 5-(6-((4-(methylsulfonyl)piperazin-1-yl)methyl)-4-morpholinopyrrolo [2,1-f][1,2,4]triazin-2-yl)-4-(trifluoromethyl)pyridin-2-amine]",GI50,KYSE150; [3],202 nM
same,GI50,KYSE150; [4],276 nM
same,GI50,KYSE150; [5],150 nM
same,GI50,KYSE150; [6],209 nM
same,GI50,KYSE450; [7],1230 nM
same,GI50,KYSE450; [8],1000 nM
same,GI50,KYSE450; [9],932 nM
same,GI50,KYSE450; [10],1050 nM
same,GI50,COLO680N; 1st experiment,959 nM
same,GI50,COLO680N; 2nd experiment,915 nM
same,GI50,COLO680N; 3rd experiment,917 nM
same,GI50,COLO680N; mean of three experiments,930 nM
same,GI50,Detroit 562; [11],580 nM
same,GI50,Detroit 562; [12],527 nM
same,GI50,Detroit 562; [13],607 nM
same,GI50,Detroit 562; [14],571 nM
same,GI50,KYSE410; [15],468 nM
same,GI50,KYSE410; [16],959 nM
same,GI50,KYSE410; [17],229 nM
same,GI50,KYSE410; [18],552 nM
same,GI50,KYSE180; [19],100 nM
same,GI50,KYSE180; [20],169 nM
same,GI50,KYSE180; [21],77 nM
same,GI50,KYSE180; [22],115 nM
same,GI50,KYSE30; [23],2350 nM
same,GI50,KYSE30; [24],1100 nM
same,GI50,KYSE30; [25],1070 nM
same,GI50,KYSE30; [26],1510 nM
same,GI50,KYSE510; [27],247 nM
same,GI50,KYSE510; [28],390 nM
same,GI50,KYSE510; [29],204 nM
same,GI50,KYSE510; [30],280 nM
same,GI50,KYSE70; [31],109 nM
same,GI50,KYSE70; [32],59 nM
same,GI50,KYSE70; [33],112 nM
same,GI50,KYSE70; [34],93 nM
same,GI50,"KYSE2; KYSE2, 1st experiment",255 nM
same,GI50,"KYSE2; KYSE2, 2nd experiment",165 nM
same,GI50,"KYSE2; KYSE2, 3rd experiment",310 nM
same,GI50,KYSE2; [35],243 nM
same,GI50,KYSE140; [36],898 nM
same,GI50,KYSE140; [37],638 nM
same,GI50,KYSE140; [38],792 nM
same,GI50,KYSE140; [39],776 nM
same,IC50,[2],730 nM
same,IC50,PI3Kα,8.37 nM
"CS(=O)(=O)N1CCN(Cc2cc3c(N4CCOCC4)nc(-c4cnc(NC(=O)Nc5ccc(F)cc5)cc4C(F)(F)F)nn3c2)CC1 [Compound I-28, 1-(4-fluorophenyl)-3-(5-(6-((4-(methylsulfonyl)piperazin-1-yl)methyl)-4-morpholinopyrrolo[2,1-f][1,2,4]triazin-2-yl)-4-(trifluoromethyl)pyridin-2-yl)urea]",inhibitory activity on Rh30 cell proliferation (in words),[2]; 72 h,tens of nanomolar
same,IC50,[2],74 nM
same,IC50,PI3Kα,9.3 nM
"CCOC(=O)Nc1cc(C(F)(F)F)c(-c2nc(N3CCOCC3)c3cc(CN4CCN(S(C)(=O)=O)CC4)cn3n2)cn1 [Compound I-32, Ethyl (5-(6-((4-(methylsulfonyl)piperazin-1-yl)methyl)-4-morpholinopyrrolo[2,1-f-][1,2,4]triazin-2-yl)-4-(trifluoromethyl)pyridin-2-yl)carbamate]",IC50,PI3Kα,7.15 nM
"COC(=O)Nc1cc(C(F)(F)F)c(-c2nc(N3CCOC[C@@H]3C)c3cc(CN4CCN(S(C)(=O)=O)CC4)cn3n2)cn1 [Compound I-35, (S)-methyl (5-(4-(3-methylmorpholino)-6-((4-(methylsulfonyl)piperazin-1-yl)methyl)pyrrolo[2,1-f][1,2,4]triazin-2-yl)-4-(trifluoromethyl)pyridin-2-yl)carbamate]",IC50,[2],470 nM
same,IC50,PI3Kα,5.67 nM
